Here are results for twelve compounds from patent US6858638B2, “Substituted indazoles, compositions containing them, method of production and use” (Aventis Pharma S.A., priority 2002, dated 2005).

In general, melting point refers to the temperature of the solid-liquid transition.

One data set addresses T1, Aurora2 kinase (Homo sapiens, UniProt O14965).
T1 construct: A complete recombinant Aurora2 enzyme; His tag (N); made in house; host or cells: E. coli
T1 sequence (O14965 1-403): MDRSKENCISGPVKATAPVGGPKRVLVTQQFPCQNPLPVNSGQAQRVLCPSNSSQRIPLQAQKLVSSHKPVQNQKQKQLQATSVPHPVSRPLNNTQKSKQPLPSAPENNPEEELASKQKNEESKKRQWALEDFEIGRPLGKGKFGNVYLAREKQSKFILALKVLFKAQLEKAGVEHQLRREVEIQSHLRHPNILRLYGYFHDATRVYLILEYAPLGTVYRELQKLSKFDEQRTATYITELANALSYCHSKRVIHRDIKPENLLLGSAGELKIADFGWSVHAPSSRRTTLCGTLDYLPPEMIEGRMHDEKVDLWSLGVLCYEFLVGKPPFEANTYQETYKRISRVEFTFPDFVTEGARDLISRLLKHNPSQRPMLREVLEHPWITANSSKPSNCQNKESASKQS
Briefly: Aurora2 kinase radioactivity scintillation assay using nickel chelate (NuMA substrate). The note with it: 10 μM; read-out: Aurora2 % inhib at 10 μM. The data set is classed as biochemical. A digest of the protocol:
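Read-out is 33P incorporation into His-NuMA (Q1687-H2101, 0.5 μM) captured on nickel chelate, after 30 min at 37 °C with 0.02 μM His-Aurora2 and 1 μM ATP. Expressed as percentage inhibition of uncompounded control activity, background subtracted.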

The subject of the next data set is c-Src protein. Briefly: Src kinase phosphorylation of biotinylated cdc2 substrate, fluorescence (DELFIA). The data set is classed as biochemical, human. The method, then:
The inhibition of the Src kinase is evaluated by measuring the phosphorylation of the biotinylated cdc2 substrate (Pierce) detected by fluorescence (DELFIA) using an antiphosphotyrosine antibody labeled with Europium, in 96-well Wallac plates. The c-Src protein used is a recombinant human protein produced in Baculovirus, comprising the SH3 and SH2 and the catalytic domains. The enzyme, the substrate and the various concentrations of test compounds are placed in the well in a 50 mM Tris buffer containing 10 mM MgCl2. The reaction is initiated by adding 10 μM of ATP. After incubation for 60 minutes at 30° C., the reaction is stopped by adding 75 mM EDTA. 50 μl are taken from each well and transferred into a plate coated with streptavidin. After incubation for 30 minutes at 25° C., the wells are washed with a washing buffer (Wallac) and then the antiphosphotyrosine antibody (PY20-Europium [Perkin Elmer]) is added in a volume of 75 μl. The plate is incubated for 30 minutes at 25° C. and then an “Enhancer” solution (Wallac) is added before reading the fluorescence using a fluorimeter (Perkin Elmer). The background noise is evaluated in triplicate in wells containing the substrate and the antibody in the absence of enzyme. The activity of the enzyme is measured (in triplicate) in the wells containing all the reagents in the absence of compound. The inhibition of the Src activity is expressed as percentage inhibition of the activity of the control determined in the absence of compound. The compound PP2 (Calbiochem) is included at various concentrations in each experiment as an inhibition control.

In a further data set the target is T2, human FAK (Homo sapiens, UniProt Q05397).
T2 construct: The complete cDNA of human FAK; made in house; host or cells: baculovirus expression system (vector pFastBac HTc)
T2 sequence (Q05397 whole entry): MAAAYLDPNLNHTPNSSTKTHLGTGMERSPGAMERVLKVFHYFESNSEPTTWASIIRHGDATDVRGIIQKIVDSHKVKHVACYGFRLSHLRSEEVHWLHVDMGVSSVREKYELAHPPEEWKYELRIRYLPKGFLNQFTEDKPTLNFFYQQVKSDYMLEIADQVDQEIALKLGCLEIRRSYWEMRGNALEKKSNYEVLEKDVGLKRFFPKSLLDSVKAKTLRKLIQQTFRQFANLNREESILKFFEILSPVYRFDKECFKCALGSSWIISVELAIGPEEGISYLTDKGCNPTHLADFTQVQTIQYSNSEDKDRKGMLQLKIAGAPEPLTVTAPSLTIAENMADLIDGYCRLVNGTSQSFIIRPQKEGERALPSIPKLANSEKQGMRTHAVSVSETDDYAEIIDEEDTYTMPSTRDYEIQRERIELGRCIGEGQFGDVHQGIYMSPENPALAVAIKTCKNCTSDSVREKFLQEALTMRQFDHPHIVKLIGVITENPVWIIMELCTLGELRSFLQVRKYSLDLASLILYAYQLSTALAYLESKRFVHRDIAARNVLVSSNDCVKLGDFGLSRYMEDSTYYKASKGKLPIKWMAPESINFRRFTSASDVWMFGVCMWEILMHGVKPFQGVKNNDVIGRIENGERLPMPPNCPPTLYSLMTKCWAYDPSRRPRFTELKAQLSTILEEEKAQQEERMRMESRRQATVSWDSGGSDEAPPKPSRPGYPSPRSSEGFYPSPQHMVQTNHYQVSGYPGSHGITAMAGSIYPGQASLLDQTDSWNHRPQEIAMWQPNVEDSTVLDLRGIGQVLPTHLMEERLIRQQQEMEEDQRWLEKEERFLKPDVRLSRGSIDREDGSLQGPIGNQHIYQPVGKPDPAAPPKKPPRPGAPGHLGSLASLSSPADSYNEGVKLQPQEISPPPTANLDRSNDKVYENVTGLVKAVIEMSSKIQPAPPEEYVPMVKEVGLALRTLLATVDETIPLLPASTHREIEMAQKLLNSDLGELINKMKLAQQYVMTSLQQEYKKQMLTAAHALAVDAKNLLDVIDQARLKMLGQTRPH
Briefly: FAK autophosphorylation inhibition, time resolved fluorescence (HTRF) assay. Format: biochemical. The note with it: 10 μM (values without asterisk); read-out: FAK % inhib at 10 μM. A digest of the protocol:
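Autophosphorylation was detected by europium-cryptate anti-pTyr and XL665 anti-His energy transfer, percent inhibition from the 665/620 ratio relative to no-compound wells. Enzyme: His-FAK full length, 6.6 µg/ml, incubated 1 h at 37 °C, pH 7.2, 15 µM ATP.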
Background: In TR-FRET formats the signal depends on donor and acceptor labels being close together.

The next data set concerns the target T3, human KDR enzyme (Homo sapiens, UniProt P35968).
T3 construct: The cytoplasmic domain of the human KDR enzyme; GST; made in house; host or cells: SF21 insect cells (baculovirus)
Briefly: KDR substrate (PLCγ) phosphorylation, scintillation assay. The note with it: 10 μM; read-out: KDR % inhib at 10 μM. The data set is classed as biochemical. A digest of the protocol:
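Values are percent inhibition relative to the compound-free control, read by scintillation counting of 33P incorporation after EDTA stop. Baculovirus/SF21-expressed GST-KDR cytoplasmic domain (100 ng) acted for 1 h at 37 °C in pH 7.2 MOPS kinase buffer. The substrate was GST-PLCγ SH2-SH3 (2 μg), added with γ33P-ATP and 2 μM unlabeled ATP.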

The test system of a further data set is NCI-H460 cells. The settings on record: concentration of 100 μM; cited from earlier work.
In the next data set the test system is HCT-15 cells. The settings on record: concentration of 100 μM; cited from earlier work.

T3 sequence (P35968 786-1356 limits assumed): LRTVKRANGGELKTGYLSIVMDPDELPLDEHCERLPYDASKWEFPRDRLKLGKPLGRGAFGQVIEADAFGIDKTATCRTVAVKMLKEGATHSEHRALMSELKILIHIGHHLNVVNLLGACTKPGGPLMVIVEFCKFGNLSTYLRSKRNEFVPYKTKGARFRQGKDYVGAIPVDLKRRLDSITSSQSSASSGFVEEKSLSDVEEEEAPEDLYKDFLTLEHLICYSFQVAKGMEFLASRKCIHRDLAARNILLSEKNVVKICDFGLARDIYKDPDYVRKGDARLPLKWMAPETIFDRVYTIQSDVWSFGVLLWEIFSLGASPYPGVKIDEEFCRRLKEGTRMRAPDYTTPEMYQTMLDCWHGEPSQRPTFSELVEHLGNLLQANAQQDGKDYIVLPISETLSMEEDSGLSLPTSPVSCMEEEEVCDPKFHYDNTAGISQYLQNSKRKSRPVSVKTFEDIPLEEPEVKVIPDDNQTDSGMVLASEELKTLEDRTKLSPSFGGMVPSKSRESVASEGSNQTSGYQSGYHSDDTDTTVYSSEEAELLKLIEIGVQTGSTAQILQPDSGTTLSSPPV

For the compound `O=S(=O)(Nc1ccc2[nH]nc(-c3ccccc3)c2c1)c1cccnc1` [Example 96, N-(3-Phenyl-1H-indazol-5-yl)pyridine-3-sulfonamide], the melting point turned out to be 225 °C. For the same compound, at Aurora2 kinase, the inhibition at 10 µM was 100%. Besides, in the data set with c-Src protein, the “SRC % inhib at 10 μM” value was found to be 83%. For the same compound, on human FAK, the inhibition at 10 µM was found to be 67%. In addition, the inhibition at 10 µM at human KDR enzyme was 91%.
Consider `COc1cc(S(=O)(=O)Nc2ccc3[nH]ncc3c2)cc(OC)c1OC` [N-(1H-indazol-5-yl)-3,4,5-trimethoxybenzenesulfonamide], for which the growth inhibition is 18.5% with NCI-H460 cells and 47.6% with HCT-15 cells.
The compound `CS(=O)(=O)c1ccccc1S(=O)(=O)Nc1ccc2[nH]nc(-c3ccc4ccccc4c3)c2c1` [Example 73, 2-Methylsulfonyl-N-(3-naphthalen-2-yl-1H-indazol-5-yl)-benzenesulfonamide] returned a melting point of 221 °C. Further, at Aurora2 kinase, the inhibition at 10 µM amounted to 100%. The “SRC % inhib at 10 μM” value with c-Src protein is 40%. In addition, on human FAK, the inhibition at 10 µM worked out at 87%. Besides, the inhibition at 10 µM at human KDR enzyme was 38%.
`O=[N+]([O-])c1cccc(S(=O)(=O)Nc2ccc3[nH]nc(-c4ccccc4)c3c2)c1` [Example 97, 3-Nitro-N-(3-phenyl-1H-indazol-5-yl)benzenesulfonamide] yielded a melting point of 228 °C. Besides, the inhibition at 10 µM on Aurora2 kinase worked out at 93%. Also, the “SRC % inhib at 10 μM” value with c-Src protein was found to be 76%. At human FAK, the inhibition at 10 µM was 50%. For the same compound, the inhibition at 10 µM at human KDR enzyme came to 96%.
As for `Nc1cccc(S(=O)(=O)Nc2ccc3[nH]nc(-c4ccccc4)c3c2)c1` [Example 98, 3-Amino-N-(3-phenyl-1H-indazol-5-yl)benzenesulfonamide], the values for the inhibition at 10 µM at Aurora2 kinase, at human FAK and at human KDR enzyme were 94%, 53% and 91%, respectively. Also, the “SRC % inhib at 10 μM” value in the data set with c-Src protein is 78%.
As for `CS(=O)(=O)c1ccccc1S(=O)(=O)Nc1ccc2[nH]nc(-c3csc4ccccc34)c2c1` [Example 64, N-(3-Benzo[b]thiophen-3-yl-1H-indazol-5-yl)-2-methylsulfonylbenzenesulfonamide], the melting point is 235 °C. In addition, the inhibition at 10 µM on Aurora2 kinase came to 72%. For the same compound, the “SRC % inhib at 10 μM” value in the data set on c-Src protein was 86%. The inhibition at 10 µM on human FAK amounted to 30%. At human KDR enzyme, the inhibition at 10 µM was 41%.
Consider `O=S(=O)(Nc1ccc2[nH]nc(-c3ccccc3)c2c1)c1cc(Cl)cc(Cl)c1` [Example 137, 3,5-Dichloro-N-(3-phenyl-1H-indazol-5-yl)-benzenesulfonamide], for which the inhibition at 10 µM on Aurora2 kinase was found to be 80%; on human FAK it was 53%; on human KDR enzyme, 96%. Further, the “SRC % inhib at 10 μM” value in the data set with c-Src protein was determined as 59%.
For `CS(=O)(=O)c1ccccc1S(=O)(=O)Nc1ccc2[nH]nc(-c3ccc([N+](=O)[O-])cc3)c2c1` [Example 66, N-[3-(4-Nitrophenyl)-1H-indazol-5-yl]-2-methylsulfonylbenzenesulfonamide], in that order: 100%, 75%, 20% and 90%.
The compound `CS(=O)(=O)c1ccccc1S(=O)(=O)Nc1ccc2[nH]nc(-c3cccc4ccccc34)c2c1` [Example 72, 2-Methylsulfonyl-N-(3-naphthalen-1-yl-1H-indazol-5-yl)-benzenesulfonamide] had a melting point of 186 °C. Moreover, the inhibition at 10 µM on Aurora2 kinase is 78%. For the same compound, the “SRC % inhib at 10 μM” value with c-Src protein was 77%. Besides, the inhibition at 10 µM at human FAK was 21%. Moreover, on human KDR enzyme, the inhibition at 10 µM amounted to 41%.
Consider `O=S(=O)(Nc1ccc2[nH]nc(-c3ccccc3)c2c1)c1cccc(C(F)(F)F)c1` [Example 130, 3-Trifluoromethyl-N-(3-phenyl-1H-indazol-5-yl)-benzenesulfonamide], for which the inhibition at 10 µM came out at 69% at Aurora2 kinase, 26% on human FAK and 94% on human KDR enzyme. Besides, in the data set on c-Src protein, the “SRC % inhib at 10 μM” value came to 18%.
For `O=S(=O)(Nc1ccc2[nH]nc(-c3ccccc3)c2c1)c1cccc(Cl)c1` [Example 136, 3-Chloro-N-(3-phenyl-1H-indazol-5-yl)-benzenesulfonamide], the values for the inhibition at 10 µM on Aurora2 kinase, at human FAK and on human KDR enzyme were 85%, 59% and 98%, respectively. For the same compound, the “SRC % inhib at 10 μM” value with c-Src protein is given as 62%.
In the case of `O=S(=O)(Nc1ccc2[nH]nc(-c3ccccc3)c2c1)c1cccc(Br)c1` [Example 141, 3-Bromo-N-(3-phenyl-1H-indazol-5-yl)-benzenesulfonamide], the inhibition at 10 µM came to 80% on Aurora2 kinase, 38% on human FAK and 97% on human KDR enzyme. Also, the “SRC % inhib at 10 μM” value with c-Src protein stood at 43%.
